From patent US11691972B2, “Compounds for targeted degradation of BRD9” (C4 Therapeutics, Inc., priority 2020, dated 2023)

Molecular target: T1, BRD9 (Homo sapiens, UniProt Q9H8M2)
T1 sequence (Q9H8M2 1-597): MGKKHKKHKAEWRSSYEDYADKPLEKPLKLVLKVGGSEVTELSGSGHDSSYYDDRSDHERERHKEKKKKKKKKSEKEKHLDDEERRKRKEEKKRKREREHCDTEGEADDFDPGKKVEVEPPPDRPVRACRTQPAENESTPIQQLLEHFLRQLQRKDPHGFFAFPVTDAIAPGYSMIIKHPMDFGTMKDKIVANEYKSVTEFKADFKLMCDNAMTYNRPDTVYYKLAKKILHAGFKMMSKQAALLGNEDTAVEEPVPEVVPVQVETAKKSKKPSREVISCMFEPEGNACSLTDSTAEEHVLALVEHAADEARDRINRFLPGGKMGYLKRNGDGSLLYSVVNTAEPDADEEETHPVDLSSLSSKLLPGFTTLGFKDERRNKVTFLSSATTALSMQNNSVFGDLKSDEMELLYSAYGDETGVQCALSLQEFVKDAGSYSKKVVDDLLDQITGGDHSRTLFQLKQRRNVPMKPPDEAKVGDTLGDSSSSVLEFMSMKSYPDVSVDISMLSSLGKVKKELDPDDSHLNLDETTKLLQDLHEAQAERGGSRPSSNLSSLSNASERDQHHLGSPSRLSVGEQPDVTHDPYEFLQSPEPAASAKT
Experiment: HiBiT BRD9 degradation assay in 293T.166 (BRD9-HiBiT) cells
Type: cell-based
Design: endogenously expressing BRD9 with HiBiT fusion tag via CRISPR; host or cells: 293T.166 (BRD9-HiBiT), also expressing LgBiT ectopically
Conditions: Table 1; 293T.166 cells, 2.0 hours; class symbols; read-out: HiBiT-Degradation 293T.166 BRD9 2.0 hours (DC50)
Procedure, shortened: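 293T.166 cells carrying endogenous CRISPR BRD9-HiBiT and expressing LgBiT treated 2 h at 37° C. with compounds, 11-point half-log titration from 10 μM in duplicate. Remaining BRD9 measured as lytic HiBiT luminescence; untreated cells as negative control, no-reagent wells as positive control.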

SMILES	DC50 [nM]
COc1cc(-c2cn(C)c(=O)c(C)c2C)cc(OC)c1CN1C2CCC1CN(C(=O)CC1CCN(c3ccc(NC4CCC(=O)NC4=O)cc3F)CC1)C2 (stereo not drawn) [Compound 65]	< 100
COc1cc(-c2cn(C)c(=O)c3[nH]ncc23)cc(Cl)c1CN1CCC(C2CCN(c3ccc(NC4CCC(=O)NC4=O)cc3)CC2)CC1 (stereo not drawn) [Compound 71]	< 100
COc1cc(-c2cn(C)c(=O)c3cnccc23)cc(Cl)c1CN1CCC(C2CCN(c3ccc(NC4CCC(=O)NC4=O)cc3)CC2)CC1 (stereo not drawn) [Compound 72]	< 100
COc1cc(-c2cn(C)c(=O)c(C)c2C)cc(Cl)c1CN1CCC(C2CCN(c3ccc(NC4CCC(=O)NC4=O)cc3F)CC2)CC1 (stereo not drawn) [Compound 74]	< 100
COc1cc(-c2cn(C)c(=O)c(C)c2C)cc(Cl)c1CN1CCC(C2CCN(c3ccc(NC4CCC(=O)NC4=O)cc3Cl)CC2)CC1 (stereo not drawn) [Compound 76]	< 100
COc1cc(-c2cn(C)c(=O)c3cnccc23)cc(Cl)c1CN1CCC(C2CCN(c3ccc(NC4CCC(=O)NC4=O)cc3Cl)CC2)CC1 (stereo not drawn) [Compound 77]	< 100
COc1cc(-c2cn(C)c(=O)c3cnccc23)cc(Cl)c1CN1CCC(C2CCN(c3ccc(NC4CCC(=O)NC4=O)cc3F)CC2)CC1 (stereo not drawn) [Compound 78]	< 100
Cn1cc(-c2ccc(CN3CCC(C4CCN(c5ccc(NC6CCC(=O)NC6=O)cc5F)CC4)CC3)c(OC(F)(F)F)c2)c2ccncc2c1=O (stereo not drawn) [Compound 79]	< 100
Cc1c(-c2ccc(CN3CCC(C4CCN(c5ccc(NC6CCC(=O)NC6=O)cc5F)CC4)CC3)c(OC(F)(F)F)c2)cn(C)c(=O)c1C (stereo not drawn) [Compound 80]	< 100
Cc1c(-c2ccc(CN3CCC(C4CCN(c5ccc(NC6CCC(=O)NC6=O)cc5F)CC4)CC3)nc2)cn(C)c(=O)c1C (stereo not drawn) [Compound 81]	< 100
COc1cc(-c2cn(C)c(=O)c(C)c2C)cnc1CN1CCC(C2CCN(c3ccc(NC4CCC(=O)NC4=O)cc3F)CC2)CC1 (stereo not drawn) [Compound 82]	< 100
COc1cc(-c2cn(C)c(=O)c3cnccc23)cc(Cl)c1CN1CCC(C2CCN(c3ccc(NC4CCC(=O)NC4=O)cc3C(F)(F)F)CC2)CC1 (stereo not drawn) [Compound 83, 3-[4-[4-[1-[[2-chloro-6-methoxy-4-(2-methyl-1-oxo-2,7-naphthyridin-4-yl)phenyl]methyl]-4-piperidyl]-1-piperidyl]-3-(trifluoromethyl)anilino]piperidine-2,6-dione]	< 100
COc1cc(-c2cn(C)c(=O)c(C)c2C)cc(Cl)c1CN1CCC(C2CCN(c3ccc(NC4CCC(=O)NC4=O)cc3C(F)(F)F)CC2)CC1 (stereo not drawn) [Compound 85]	< 100
COc1cc(-c2cn(C)c(=O)c(C)c2C)cc(F)c1CN1CCC(C2CCN(c3ccc(NC4CCC(=O)NC4=O)cc3C(F)(F)F)CC2)CC1 (stereo not drawn) [Compound 86]	< 100
COc1cc(-c2cn(C)c(=O)c3cnccc23)cc(Cl)c1CN1CCC(C2CCN(c3ccc(NC4CCC(=O)NC4=O)nc3)CC2)CC1 (stereo not drawn) [Compound 89]	< 100
Cc1c(-c2ccc(CN3CCC(C4CCN(c5ccc(NC6CCC(=O)NC6=O)nc5)CC4)CC3)c(OC(F)(F)F)c2)cn(C)c(=O)c1C (stereo not drawn) [Compound 90]	< 100
Cc1c(-c2ccc(C(C)N3CCC(C4CCN(c5ccc(NC6CCC(=O)NC6=O)cc5F)CC4)CC3)c(OC(F)(F)F)c2)cn(C)c(=O)c1C (stereo not drawn) [Compound 91]	< 100
CC(c1ccc(-c2cn(C)c(=O)c3cnccc23)cc1OC(F)(F)F)N1CCC(C2CCN(c3ccc(NC4CCC(=O)NC4=O)cc3F)CC2)CC1 (stereo not drawn) [Compound 92]	< 100
CC(c1ccc(-c2cn(C)c(=O)c3cc(F)ccc23)cc1OC(F)(F)F)N1CCC(C2CCN(c3ccc(NC4CCC(=O)NC4=O)cc3F)CC2)CC1 (stereo not drawn) [Compound 93]	< 100

Continued, values first:

DC50 [nM]	SMILES
< 100	COc1cc(-c2cn(C)c(=O)c3cnccc23)cc(OC)c1CN1CCN(C(=O)CC2CCN(c3ccc(NC4CCC(=O)NC4=O)cc3C(F)(F)F)CC2)CC12CC2 (stereo not drawn) [Compound 59]
< 100	COc1cc(-c2cn(C)c(=O)c(C)c2C)cc(OC)c1CN1CCN(C(=O)CC2CCN(c3ccc(NC4CCC(=O)NC4=O)cc3C(F)(F)F)CC2)CC12CC2 (stereo not drawn) [Compound 60]
< 100	COc1cc(-c2cn(C)c(=O)c(C)c2C)cc(OC)c1CN1CCN(C(=O)CC2CCN(c3ccc(NC4CCC(=O)NC4=O)cc3C(F)(F)F)CC2)CC1 (stereo not drawn) [Compound 61]
< 100	COc1cc(-c2cn(C)c(=O)c3ccccc23)cc(OC)c1CN1CCN(C(=O)CC2CCN(c3ccc(NC4CCC(=O)NC4=O)cc3C(F)(F)F)CC2)CC1 (stereo not drawn) [Compound 62]
< 100	COc1cc(-c2cn(C)c(=O)c(C)c2C)cc(OC)c1CN1C2CCC1CN(C(=O)CC1CCN(c3ccc(NC4CCC(=O)NC4=O)cc3C(F)(F)F)CC1)C2 (stereo not drawn) [Compound 63, 3-[4-[4-[2-[8-[[2,6-dimethoxy-4-(1,4,5-trimethyl-6-oxo-3-pyridyl)phenyl]methyl]-3,8-diazabicyclo[3.2.1]octan-3-yl]-2-oxo-ethyl]-1-piperidyl]-3-(trifluoromethyl)anilino]piperidine-2,6-dione]
< 100	COc1cc(-c2cn(C)c(=O)c3ccccc23)cc(OC)c1CN1C2CCC1CN(C(=O)CC1CCN(c3ccc(NC4CCC(=O)NC4=O)cc3C(F)(F)F)CC1)C2 (stereo not drawn) [Compound 64]
< 100	COc1cc(-c2cn(C)c(=O)c3[nH]ncc23)cc(Cl)c1CN1CCN(C(=O)CC2CCN(c3ccc(NC4CCC(=O)NC4=O)cc3F)CC2)CC1 (stereo not drawn) [Compound 66]
< 100	COc1cc(-c2cn(C)c(=O)c3[nH]ncc23)cc(OC)c1CN1CCN(C(=O)CC2CCN(c3ccc(NC4CCC(=O)NC4=O)cc3Cl)CC2)CC1 (stereo not drawn) [Compound 67]
< 100	COc1cc(-c2cn(C)c(=O)c3[nH]ncc23)cc(OC)c1CN1CCN(C(=O)CC2(O)CCN(c3ccc(NC4CCC(=O)NC4=O)cc3C(F)(F)F)CC2)CC1 (stereo not drawn) [Compound 68, 3-[4-[4-[2-[4-[[2,6-dimethoxy-4-(6-methyl-7-oxo-1H-pyrazolo[3,4-c]pyridin-4-yl)phenyl]methyl]piperazin-1-yl]-2-oxo-ethyl]-4-hydroxy-1-piperidyl]-3-(trifluoromethyl)anilino]piperidine-2,6-dione]
< 100	COc1cc(-c2cn(C)c(=O)c3[nH]ncc23)cc(OC)c1CN1CCC(C2CCN(c3ccc(NC4CCC(=O)NC4=O)cc3)CC2)CC1 (stereo not drawn) [Compound 70, 3-[4-[4-[1-[[2,6-dimethoxy-4-(6-methyl-7-oxo-1H-pyrazolo[3,4-c]pyridin-4-yl)phenyl]methyl]-4-piperidyl]-1-piperidyl]anilino]piperidine-2,6-dione]
< 100	COc1cc(-c2cn(C)c(=O)c3[nH]ncc23)cc(Cl)c1CN1CCC(C2CCN(c3ccc(NC4CCC(=O)NC4=O)cc3F)CC2)CC1 (stereo not drawn) [Compound 73, 3-[4-[4-[1-[[2-chloro-6-methoxy-4-(6-methyl-7-oxo-1H-pyrazolo[3,4-c]pyridin-4-yl)phenyl]methyl]-4-piperidyl]-1-piperidyl]-3-fluoro-anilino]piperidine-2,6-dione]
< 100	COc1cc(-c2cn(C)c(=O)c3[nH]ncc23)cc(Cl)c1CN1CCC(C2CCN(c3ccc(NC4CCC(=O)NC4=O)cc3Cl)CC2)CC1 (stereo not drawn) [Compound 75]
< 100	COc1cc(-c2cn(C)c(=O)c3[nH]ncc23)cc(F)c1CN1CCC(C2CCN(c3ccc(NC4CCC(=O)NC4=O)cc3C(F)(F)F)CC2)CC1 (stereo not drawn) [Compound 84]
< 100	COc1cc(-c2cn(C)c(=O)c3cnccc23)cc(F)c1CN1CCC(C2CCN(c3ccc(NC4CCC(=O)NC4=O)cc3C(F)(F)F)CC2)CC1 (stereo not drawn) [Compound 87]
